Results from ChEMBL document CHEMBL5465560, “Selectivity Literature for EUbOPEN Chemogenomic Library” (2024).

Legend:
[1] = molecular target: Protein kinase C theta type (Homo sapiens, UniProt Q04759); settings: at 10 µM
[2] = molecular target: Tyrosine-protein kinase BTK (Homo sapiens, UniProt Q06187); assay: Selectivity interaction (Kinome Scan (DiscoverX)) EUB0000229b BTK; settings: at 10 µM
[3] = molecular target: Phosphatidylinositol 4-kinase beta (Homo sapiens, UniProt Q9UBF8); assay: Selectivity interaction (Kinase panel (KiNativ target engagement assay in Jurkat cells)) EUB0001635a PI4KB; assay type: cell-based; settings: Selectivity number of off-targets 0.0, Selectivity number of targets 233.0, Source Knowledge https://www.sciencedirect.com/science/article/pii/S2451945619300674?via%3Dihub, at 1 µM
Phosphatidylinositol 4-kinase beta, sequence (Q9UBF8 2-816 limits assumed): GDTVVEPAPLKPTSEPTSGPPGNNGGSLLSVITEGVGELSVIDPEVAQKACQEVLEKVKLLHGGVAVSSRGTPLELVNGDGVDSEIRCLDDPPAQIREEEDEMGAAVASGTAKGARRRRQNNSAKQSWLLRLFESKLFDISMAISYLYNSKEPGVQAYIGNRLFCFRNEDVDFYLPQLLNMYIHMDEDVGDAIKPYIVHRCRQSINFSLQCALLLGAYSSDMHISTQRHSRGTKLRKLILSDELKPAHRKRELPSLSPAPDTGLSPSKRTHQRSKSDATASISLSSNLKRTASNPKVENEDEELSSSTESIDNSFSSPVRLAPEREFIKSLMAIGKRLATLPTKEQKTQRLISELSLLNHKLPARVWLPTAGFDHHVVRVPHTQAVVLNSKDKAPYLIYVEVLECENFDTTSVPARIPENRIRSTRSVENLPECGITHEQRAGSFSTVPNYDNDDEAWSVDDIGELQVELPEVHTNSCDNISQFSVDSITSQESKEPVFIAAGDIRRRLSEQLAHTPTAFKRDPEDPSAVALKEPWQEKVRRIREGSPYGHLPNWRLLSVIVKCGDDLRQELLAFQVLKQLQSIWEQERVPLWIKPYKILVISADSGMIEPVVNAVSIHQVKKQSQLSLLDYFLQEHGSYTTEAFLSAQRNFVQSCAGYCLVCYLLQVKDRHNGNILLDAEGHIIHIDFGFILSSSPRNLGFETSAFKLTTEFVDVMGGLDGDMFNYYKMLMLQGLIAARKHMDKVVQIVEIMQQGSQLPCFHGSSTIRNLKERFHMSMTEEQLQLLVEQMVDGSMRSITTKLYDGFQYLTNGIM

[4] = molecular target: T1, Phosphatidylinositol 3-kinase C2 domain-containing subunit gamma (Homo sapiens) (UniProt O75747); assay: Selectivity interaction (KinomeScan (DiscoverX)) EUB0000666a PIK3C2G; settings: at 10 µM
T1 sequence (whole entry): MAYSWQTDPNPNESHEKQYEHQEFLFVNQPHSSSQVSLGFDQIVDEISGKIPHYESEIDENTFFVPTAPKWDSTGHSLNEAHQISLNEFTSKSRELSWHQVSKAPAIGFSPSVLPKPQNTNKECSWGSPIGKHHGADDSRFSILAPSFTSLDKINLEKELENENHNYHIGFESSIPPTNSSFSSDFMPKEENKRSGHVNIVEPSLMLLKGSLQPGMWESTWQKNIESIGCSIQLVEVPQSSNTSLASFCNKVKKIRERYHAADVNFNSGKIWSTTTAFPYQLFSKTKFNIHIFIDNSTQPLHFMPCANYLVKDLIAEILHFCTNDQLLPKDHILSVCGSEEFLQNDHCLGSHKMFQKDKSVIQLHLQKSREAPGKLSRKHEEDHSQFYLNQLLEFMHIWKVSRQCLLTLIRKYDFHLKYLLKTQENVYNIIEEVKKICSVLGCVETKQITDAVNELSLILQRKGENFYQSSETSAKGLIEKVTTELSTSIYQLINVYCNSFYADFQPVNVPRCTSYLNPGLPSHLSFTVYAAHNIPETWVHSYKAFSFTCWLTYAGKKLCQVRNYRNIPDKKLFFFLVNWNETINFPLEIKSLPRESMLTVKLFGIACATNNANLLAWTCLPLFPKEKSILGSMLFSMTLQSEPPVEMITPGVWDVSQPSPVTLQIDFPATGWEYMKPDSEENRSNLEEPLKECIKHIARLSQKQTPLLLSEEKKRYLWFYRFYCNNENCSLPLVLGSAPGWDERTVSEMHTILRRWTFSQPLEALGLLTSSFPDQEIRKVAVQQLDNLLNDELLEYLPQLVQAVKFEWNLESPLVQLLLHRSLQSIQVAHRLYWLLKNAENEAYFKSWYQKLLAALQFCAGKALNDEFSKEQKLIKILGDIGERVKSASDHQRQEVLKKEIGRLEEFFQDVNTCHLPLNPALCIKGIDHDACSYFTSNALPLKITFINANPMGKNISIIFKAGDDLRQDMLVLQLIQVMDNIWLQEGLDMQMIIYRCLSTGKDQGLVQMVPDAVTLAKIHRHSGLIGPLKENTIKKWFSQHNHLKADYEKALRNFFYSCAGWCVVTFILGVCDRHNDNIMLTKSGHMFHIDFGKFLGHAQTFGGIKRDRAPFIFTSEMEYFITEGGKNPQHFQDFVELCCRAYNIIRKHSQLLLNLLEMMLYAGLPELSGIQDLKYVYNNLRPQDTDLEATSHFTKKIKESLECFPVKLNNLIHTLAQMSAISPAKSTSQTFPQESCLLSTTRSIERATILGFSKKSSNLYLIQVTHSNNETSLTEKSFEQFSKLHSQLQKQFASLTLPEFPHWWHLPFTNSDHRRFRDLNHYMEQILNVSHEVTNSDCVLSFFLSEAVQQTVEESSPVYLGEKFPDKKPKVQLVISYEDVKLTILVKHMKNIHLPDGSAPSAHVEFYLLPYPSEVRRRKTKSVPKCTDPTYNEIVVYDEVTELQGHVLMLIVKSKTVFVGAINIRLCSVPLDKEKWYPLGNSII

[5] = molecular target: T2, Ephrin type-B receptor 4 (Homo sapiens) (UniProt P54760); assay: Selectivity interaction (Kinase panel (Z-LYTE Assay)) EUB0001632a EPHB4; settings: at 10 µM
T2 sequence (whole entry): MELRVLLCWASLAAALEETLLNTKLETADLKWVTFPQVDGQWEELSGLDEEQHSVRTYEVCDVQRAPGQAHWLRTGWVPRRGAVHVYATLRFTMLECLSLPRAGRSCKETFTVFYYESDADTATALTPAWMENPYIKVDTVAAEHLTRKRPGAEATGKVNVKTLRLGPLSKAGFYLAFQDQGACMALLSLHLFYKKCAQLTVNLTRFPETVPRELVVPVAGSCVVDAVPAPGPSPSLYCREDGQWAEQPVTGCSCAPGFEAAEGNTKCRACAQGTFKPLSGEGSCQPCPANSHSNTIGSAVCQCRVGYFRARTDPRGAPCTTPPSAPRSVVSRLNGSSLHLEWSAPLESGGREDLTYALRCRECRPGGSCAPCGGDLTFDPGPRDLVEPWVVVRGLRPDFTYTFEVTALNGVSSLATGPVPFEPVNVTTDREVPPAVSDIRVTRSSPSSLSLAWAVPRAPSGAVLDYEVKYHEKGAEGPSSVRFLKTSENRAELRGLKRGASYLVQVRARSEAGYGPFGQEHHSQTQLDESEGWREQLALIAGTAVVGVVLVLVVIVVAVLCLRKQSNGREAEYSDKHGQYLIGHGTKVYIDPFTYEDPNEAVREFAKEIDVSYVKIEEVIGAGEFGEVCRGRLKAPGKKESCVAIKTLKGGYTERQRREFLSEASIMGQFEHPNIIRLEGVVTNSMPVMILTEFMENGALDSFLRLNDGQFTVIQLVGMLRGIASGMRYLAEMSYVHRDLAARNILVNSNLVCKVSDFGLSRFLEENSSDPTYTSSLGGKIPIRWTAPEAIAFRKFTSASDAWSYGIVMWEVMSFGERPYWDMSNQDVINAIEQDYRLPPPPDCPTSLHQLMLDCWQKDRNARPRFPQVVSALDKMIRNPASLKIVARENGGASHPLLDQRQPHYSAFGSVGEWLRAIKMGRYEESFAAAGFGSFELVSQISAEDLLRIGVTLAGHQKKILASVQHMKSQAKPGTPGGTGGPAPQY

[6] = molecular target: Mitogen-activated protein kinase 14 (Homo sapiens, UniProt Q16539); assay: Selectivity interaction (SelectScreen profiling (Invitrogen)) EUB0000607a MAPK14; settings: at 2 µM
Mitogen-activated protein kinase 14, sequence (Q16539 whole entry): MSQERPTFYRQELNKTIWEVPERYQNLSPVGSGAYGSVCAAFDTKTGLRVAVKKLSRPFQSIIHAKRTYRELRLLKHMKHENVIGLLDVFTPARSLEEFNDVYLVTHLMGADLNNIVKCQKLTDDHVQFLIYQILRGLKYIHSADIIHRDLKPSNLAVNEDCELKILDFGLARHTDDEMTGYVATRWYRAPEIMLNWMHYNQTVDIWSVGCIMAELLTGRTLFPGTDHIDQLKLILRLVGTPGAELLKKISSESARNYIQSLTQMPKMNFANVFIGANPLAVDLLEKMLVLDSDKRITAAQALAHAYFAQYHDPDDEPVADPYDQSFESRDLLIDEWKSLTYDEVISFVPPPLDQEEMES

[7] = molecular target: Serine/threonine-protein kinase SIK1 (Homo sapiens) (UniProt P57059); assay: Selectivity interaction (Kinase panel (Carna Biosciences)) EUB0001542aTs SIK1; settings: at 1 µM
Serine/threonine-protein kinase SIK1 (Homo sapiens), sequence (P57059 whole entry): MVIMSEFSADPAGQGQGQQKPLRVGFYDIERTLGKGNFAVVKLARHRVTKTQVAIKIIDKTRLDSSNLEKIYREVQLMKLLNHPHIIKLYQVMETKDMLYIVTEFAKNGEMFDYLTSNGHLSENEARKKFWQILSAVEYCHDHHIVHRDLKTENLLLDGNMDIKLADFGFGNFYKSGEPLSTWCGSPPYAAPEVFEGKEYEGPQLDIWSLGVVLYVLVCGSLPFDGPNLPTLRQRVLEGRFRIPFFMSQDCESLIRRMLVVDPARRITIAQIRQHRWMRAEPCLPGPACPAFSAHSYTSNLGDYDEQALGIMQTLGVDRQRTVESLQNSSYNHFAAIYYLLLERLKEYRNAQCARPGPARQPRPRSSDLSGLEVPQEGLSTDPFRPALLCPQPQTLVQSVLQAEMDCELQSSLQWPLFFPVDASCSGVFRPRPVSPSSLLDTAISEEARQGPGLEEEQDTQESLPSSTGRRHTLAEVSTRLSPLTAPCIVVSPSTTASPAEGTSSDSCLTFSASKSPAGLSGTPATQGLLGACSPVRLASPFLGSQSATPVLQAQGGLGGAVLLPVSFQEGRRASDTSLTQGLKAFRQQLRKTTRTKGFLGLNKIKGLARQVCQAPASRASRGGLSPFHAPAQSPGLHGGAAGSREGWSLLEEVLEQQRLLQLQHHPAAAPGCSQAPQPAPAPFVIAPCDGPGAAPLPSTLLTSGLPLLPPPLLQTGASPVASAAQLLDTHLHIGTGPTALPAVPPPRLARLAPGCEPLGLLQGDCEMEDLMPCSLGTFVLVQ

Protein kinase C theta type, sequence (Q04759 whole entry, looked up): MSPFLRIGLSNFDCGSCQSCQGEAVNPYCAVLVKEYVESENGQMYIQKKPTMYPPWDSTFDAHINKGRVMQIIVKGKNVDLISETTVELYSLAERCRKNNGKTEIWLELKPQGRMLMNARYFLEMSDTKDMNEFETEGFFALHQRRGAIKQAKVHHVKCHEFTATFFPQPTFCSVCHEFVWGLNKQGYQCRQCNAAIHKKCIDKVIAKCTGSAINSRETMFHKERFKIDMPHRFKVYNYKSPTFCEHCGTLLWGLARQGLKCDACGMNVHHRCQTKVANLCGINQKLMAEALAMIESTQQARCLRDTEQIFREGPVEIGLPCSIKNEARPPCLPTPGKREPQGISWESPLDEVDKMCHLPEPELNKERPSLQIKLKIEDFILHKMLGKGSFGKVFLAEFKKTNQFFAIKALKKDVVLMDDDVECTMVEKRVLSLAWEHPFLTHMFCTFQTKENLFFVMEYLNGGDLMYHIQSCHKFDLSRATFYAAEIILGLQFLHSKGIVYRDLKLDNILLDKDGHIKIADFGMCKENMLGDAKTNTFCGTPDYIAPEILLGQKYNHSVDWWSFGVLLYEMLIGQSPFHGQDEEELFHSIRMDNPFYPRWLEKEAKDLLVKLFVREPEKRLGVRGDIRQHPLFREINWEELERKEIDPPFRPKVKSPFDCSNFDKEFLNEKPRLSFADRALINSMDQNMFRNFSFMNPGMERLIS
Tyrosine-protein kinase BTK, sequence (Q06187 whole entry): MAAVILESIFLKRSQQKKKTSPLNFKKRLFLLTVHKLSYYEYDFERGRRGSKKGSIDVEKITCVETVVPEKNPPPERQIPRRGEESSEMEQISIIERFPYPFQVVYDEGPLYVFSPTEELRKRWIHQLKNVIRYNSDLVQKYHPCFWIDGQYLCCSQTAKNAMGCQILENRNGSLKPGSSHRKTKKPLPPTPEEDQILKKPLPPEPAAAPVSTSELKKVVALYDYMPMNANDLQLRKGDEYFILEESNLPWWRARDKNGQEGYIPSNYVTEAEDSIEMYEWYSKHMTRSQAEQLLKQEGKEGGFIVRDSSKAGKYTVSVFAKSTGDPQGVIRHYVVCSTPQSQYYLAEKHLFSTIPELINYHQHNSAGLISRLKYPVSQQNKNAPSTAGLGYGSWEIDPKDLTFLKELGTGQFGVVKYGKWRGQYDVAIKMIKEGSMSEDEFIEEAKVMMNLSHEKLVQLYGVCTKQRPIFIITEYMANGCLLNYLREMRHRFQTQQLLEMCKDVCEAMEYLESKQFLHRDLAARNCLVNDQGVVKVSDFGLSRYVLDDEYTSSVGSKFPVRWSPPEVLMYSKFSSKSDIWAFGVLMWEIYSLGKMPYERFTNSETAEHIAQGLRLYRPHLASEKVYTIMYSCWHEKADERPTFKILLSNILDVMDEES

CCN(CC)CCCCNc1ncc2cc(-c3cc(OC)cc(OC)c3)c(NC(=O)NC(C)(C)C)nc2n1
% of control [1]: 100%

COc1cc(N(C)c2ccnc3ccc(C(F)(F)F)cc23)cc(OC)c1OC
% binding [2]: 100%

C=CC(=O)Nc1ccc(C(=O)Nc2[nH]nc3c2CN(C(=O)N[C@H](CN(C)C)c2ccccc2)C3(C)C)cc1
% of engagement [3]: -4.1%

O=C(NOC[C@H](O)CO)c1ccc(F)c(F)c1Nc1ccc(I)cc1F
% of control [4]: 48%

Cn1cc(-n2cnc3c(NCc4nc5cc(Cl)c(Cl)cc5[nH]4)nc(N4CCOCC4)nc32)cn1
% of control [5]: -10.1%

CNC(=O)Nc1ccc(-c2nc(N3CC4CCC(C3)O4)c3cnn(C4CCC5(CC4)OCCO5)c3n2)cc1
% of inhibition [6]: 11%

Cn1cc(Nc2nccc(N3CC4CCC(C3)N4C(=O)[C@@H]3CC3(F)F)n2)cn1
% of inhibition [7]: 77%
